{
  "source": "patent US20210145830A1",
  "about": "“MATERIALS AND METHODS FOR TREATING CANCER” (Mayo Foundation for Medical Education and Research, priority 2018, published 2021)",
  "key": {"[1]": {"system": "CART19 cells", "test": "RNA-seq of TP0903 treated vs non-treated CART19 cells", "type": "cell-based", "experimental": "FIG. 24A-B. A. Western blot analysis of p-LCK inhibition by TP0903 in CART19 cells. CART19 cells were incubated with lethally irradiated JeKo-1 in the presence of TP0903 at a 1 to 3 ratio for 24 hours. After the incubation, CART19 cells were purified with anti-CD19 micro beads. […] B. Comparison of gene expression between TP0903 treated CART19 cells and non-treated CART19 cells subpopulations using RNA-seq. CART19 cells from three biological replicates were thawed and stimulated with irradiated JeKo-1 (120 Gy) for 5 days. Each sample was treated with either 30 nM TP0903 (treated condition) or DMSO (untreated condition). Representative flow cytometric analysis of CART19 cells before RNA isolation (right). RNA-seq was performed on an Illumina […] by the Genomic Sequencing Core at Mayo Clinic.\nFIG. 28A-E. A, Western blot analysis of p-LCK inhibition by TP-0903 in CART19 cells. CART19 cells were incubated with lethally irradiated JeKo-1 in the presence of TP0903 at a 1 to 3 ratio for 24 hours. After the incubation, CART19 cells were purified with anti-CD19 micro beads. B, Representative flow cytometric analysis of CART19 cells before RNA isolation. Principal component analysis (PCA) from RNA-seq analysis of untreated cells and cells treated with 30 nM of TP-0903. […]"}, "[2]": {"system": "JeKo", "test": "MCL (JeKo) xenograft in NSG mice with re-challenge", "type": "in vivo", "experimental": "FIGS. 19A-F. A. Inhibitory receptors expression in naïve T cells after TCR activation with CD3 stimulation in the increasing dose of TP0903. Naïve T cells were incubated with anti CD3/CD28 beads at a 1 to 3 ratio in the presence of TP0903. At day 3, T cells were stained with PD-1, TIM-3, LAG-3, and ICOS. […] Teff cells were isolated by negative selection using Human T Cell Isolation Kit. Tregs were isolated by negative selection using the human CD4^+CD127^lowCD25^+ Treg isolation kit. Teff and Treg were stimulated with anti CD3/CD28 beads and 400 U/ml of IL-2. At day 5, total T cells were evaluated via CountBright quantification. C. CART19 cytokine assay in the presence TP0903. UTDs or CART19 were incubated with Jeko in the presence of TP-0903 at a 1 to 1 ratio. Supernatant was harvested and analyzed by 32-plex Luminex array after 3 days. D. Inhibitory receptors expression in CART19 cells in the presence TP0903. UTDs or CART19 were incubated with Jeko at a 1 to 1 E/T ratio in the presence of TP0903. At day 5, T cells were stained with PD-1 (left), LAG-3 (right), and TIM-3. E. CART19 cytotoxicity in the presence TP0903: CART19 or UTDs were co-cultured at different effector-to-target ratios (E:T) with luciferase-positive Jeko in the presence of increasing doses of TP0903. Cell killing was assessed by luminescence at 24 hours. F. TP0903 enhanced CART cell persistence in vivo. NSG mice were injected with 1.0×10^6 luciferase-positive JeKo on day −7. At day 0, mice were randomized according to tumor burden to receive vehicle, TP0903 20 mg/kg/day, […] CART19, or TP0903 20 mg/kg/day+0.5×10^6 CART19. At day 21, mice were re-challenged with JeKo.\nFIG. 25A-E. Impact of the combinatory therapy in vivo. A. Schema for in vivo experiment. B and C. […] D. Reduction of MCP-1, which is known as CRS related cytokine in the presence of TP0903. E. Expansion of circulating CART19 after re-challenging Luciferase positive JeKo-1.\nNOD-SCID-γ chain−/− (NSG) originally obtained from Jackson Laboratories were maintained in our laboratory under an IACUC approved breeding protocol. Schemas of the utilized xenograft models are discussed in detail in the relevant figures and the Results section. Cells were injected in 200 μL of phosphate-buffered saline at the indicated concentration into the tail veins of mice. Bioluminescent imaging was performed using a Xenogen IVIS-200 Spectrum camera. Images were acquired and analyzed using Living Image version 4.4 (Caliper LifeSciences, Inc., PerkinElmer).\nTo investigate the effect of AXL RTK inhibition of CART cells with TP0903 in vivo, MCL xenografts were established through the injection of 1.0×10^6 of JeKo into NSG mice. A week after the injection of JeKo, mice were treated with either vehicle alone, TP0903 (20 mg/kg/day) alone, 0.5×10^6 of CART19 alone, or TP0903 (20 mg/kg/day)+0.5×10^6 of CART19. Three weeks after the treatment, mice were rechallenged with 1.0×10^6 of JeKo."}},
  "data": [
    {"compound": "CN1CCN(Cc2ccc(Nc3ncc(Cl)c(Nc4ccccc4S(=O)(=O)N(C)C)n3)cc2)CC1", "note": "[TP0903]", "values": [
      {"measurement": "immune synapse related genes (cell junction, cell migration)", "setting": "[1]; activated CART cells treated with TP0903", "result": "significantly increased"},
      {"measurement": "differentially expressed genes in transcriptome vs non-treated cells", "setting": "[1]; activated CART cells treated with TP0903 (30 nM)", "result": "More than 100 genes"},
      {"measurement": "outcome of JeKo re-challenge", "setting": "[2]; TP0903 20 mg/kg/day + 0.5×10^6 CART19, re-challenge at three weeks", "result": "successfully rejected"},
      {"measurement": "CART cell persistence in vivo", "setting": "[2]; TP0903 20 mg/kg/day + CART19", "result": "enhanced"},
      {"measurement": "tumor burden", "setting": "[2]; combination of CART19 and TP0903 vs CART19 monotherapy", "result": "superior low tumor burden"},
      {"measurement": "circulating CART19", "setting": "[2]; combination, after re-challenging Luciferase positive JeKo-1", "result": "Expansion"},
      {"measurement": "MCP-1 (CRS related cytokine)", "setting": "[2]; in vivo, in the presence of TP0903", "result": "Reduction"}
    ]}
  ]
}
